For orientation: EC50 means the concentration needed to bring the measured effect to its halfway point.

The first experiment relates to NLRP3 inflammasome. Briefly: NLRP3 inflammasome activation: ASC-SPECK formation in gramicidin-stimulated THP-1 cells. The experiment is classed as cell-based. The following applies: Homo sapiens, THP-1, inhibition of ASC SPECK formation; PMA-treated human monocytic THP-1 cells, compound 1 h before 12.5 μg/ml gramicidin, 3-hour treatment. The text has this: Activation of the canonical NLRP3 inflammasome requires two steps, priming and activation. A priming signal such as a pathogen activated molecular patterns (PAMPs) or danger-activated molecular patterns (DAMPs) are recognized by Toll-like receptors leads to nuclear factor kappa B (NF-KB)-mediated signaling. […] The second step is activation which induces oligomerization of NLRP3 and subsequent assembly of NLRP3, apoptosis-associated speck-like protein containing a CARD (ASC), and procaspase-1 into an inflammasome complex. This triggers the transformation of procaspase-1 to caspase-1, and the production and secretion of mature IL-1β and IL-18 (Kim et al., J. Inflamm. 2015, 12, 41; Ozaki et al., J. Inflamm. Res. 2015, 8, 15-27; Rabeony et al., Eur. J. Immunol. 2015, 45, 2847). During inflammasome complex assembly, the oligomerization of NLRP3 triggers the nucleation of ASC and an event commonly referred to as “ASC SPECK” formation, as it is identified in the cell as a discrete puncta within the cell after staining and visualization of ASC using common immunocytochemical methods.
The ability of compounds to inhibit NLRP3 inflammasome activation was determined in vitro by monitoring formation of the ASC-SPECK in human monocytic THP-1 cells after stimulation. THP-1 cells (ATCC catalog #TIB-202) were maintained in complete growth media containing Roswell Park Memorial Institute RPMI (ATCC catalog #30-2001), 10% heat inactivated fetal bovine serum, 1× penicillin/streptomycin and 0.05 mM 2-mercaptoethanol. At the start of the assay, undifferentiated THP-1 cells were plated at a density of 20,000 cells per well in a 384-well plate (Poly-D-lysine coated Cell Carrier Ultra microplate, Perkin Elmer catalog #6057500) in complete growth media supplemented with 10 ng/ml phorbol 12-myristate 13-acetate (PMA; Sigma catalog #P8139), and then incubated overnight. The next day, media was replaced with assay media (RPMI (Gibco catalog #11875-093), 0.01% bovine serum albumin (BSA)). Compounds were serially diluted in DMSO and then added to wells one hour prior to the addition of 12.5 μg/ml Gramicidin (Enzo Lifescience, catalog #ALX-350-233-M005). All incubations were carried out at 37° C. (5% CO2/95% air). Following a 3-hour treatment with gramicidin, cells are fixed with 4% paraformaldehyde and stored at 4° C. until immunofluorescence staining.
Immunofluorescence staining: Anti-ASC antibody (MBL catalog #D086-3) was desalted and labeled with Alexa 488 antibody labeling kit (Thermo catalog #A20181) prior to use as described below. After fixation, the following steps were carried out at rt. Cells were first permeabilized with 0.3% polyethylene glycol tert-octylphenyl ether (Triton X-100) in phosphate-buffered saline (PBS) for 15 minutes and then incubated in blocking buffer containing 5% goat serum, 0.3% polyethylene glycol sorbitan monolaurate (Tween-20) and 0.03% sodium azide in PBS for 1 hour. Cells were stained with a mixture of ASC-Alexa 488 antibody (diluted 1:200 in blocking buffer) and nuclear stain DRAQ5 (1:5000 in blocking buffer, Thermo catalog #62251) in blocking buffer for 1 hour. Following a wash with 0.3% polyethylene glycol sorbitan monolaurate (Tween-20) in PBS, plates were imaged with an Opera Phenix High Content Screening System. The number of DRAQ5 positive cells containing ASC SPECKS were quantified in each well.
Data analysis: EC50 values were calculated by standard curve-fitting analysis using an internally developed program in TIBCO Spotfire software.
Regarding `Cc1cc(Cl)cc(O)c1-c1cnc2cn([C@H]3[C@@H]4COC[C@@H]43)nc2n1` [Example 57, 2-(2-((1R,5S,6R)-3-oxabicyclo[3.1.0]hexan-6-yl)-2H-pyrazolo[3,4-b]pyrazin-6-yl)-5-chloro-3-methylphenol], the EC50 stood at 60 nM.

Take `Cc1cc(C(F)(F)F)cc(O)c1-c1cnc2cn(C3(C)CCOC3)nc2n1` (single isomer, unassigned) [Example 78, (S or R)-3-methyl-2-(2-(3-methyltetrahydrofuran-3-yl)-2H-pyrazolo[3,4-b]pyrazin-6-yl)-5-(trifluoromethyl)phenol]: the EC50 was found to be 198 nM.

Regarding `Cc1cc(C(F)(F)F)cc(O)c1-c1cnc2cn(C34CCOC(C)(C3)C4)nc2n1` [Example 15, 3-methyl-2-(2-(1-methyl-2-oxabicyclo[3.1.1]heptan-5-yl)-2H-pyrazolo[3,4-b]pyrazin-6-yl)-5-(trifluoromethyl)phenol], the EC50 was found to be 84 nM.

`CCN1C[C@H](Cn2cc3ncc(-c4c(C)cc(C(F)(F)F)cc4O)nc3n2)OC1=O` [Example 110, (R)-3-ethyl-5-((6-(2-hydroxy-6-methyl-4-(trifluoromethyl)phenyl)-2H-pyrazolo[3,4-b]pyrazin-2-yl)methyl)oxazolidin-2-one]: the EC50 worked out at 168 nM.

On to `Cc1cc(C(F)(F)F)cc(O)c1-c1cnc2cn([C@H]3CCOC[C@@H]3F)nc2n1` (single isomer, unassigned) [Example 103, 2-(2-((3R,4S or 3S,4R)-3-fluorotetrahydro-2H-pyran-4-yl)-2H-pyrazolo[3,4-b]pyrazin-6-yl)-3-methyl-5-(trifluoromethyl)phenol], for which the EC50 is 321 nM.

With `Cc1cc(C(F)(F)F)cc(O)c1-c1cnc2cn(C34CCC(O)(CC3)C4)nc2n1` [Example 28, 4-[6-[2-hydroxy-6-methyl-4-(trifluoromethyl)phenyl]pyrazolo[3,4-b]pyrazin-2-yl]norboman-1-ol], the EC50 came out at 55 nM.

As to `CCOCOc1cc(C(F)(F)F)cc(C)c1-c1cnc2c([C@H](C)O)n(C[C@@H]3CC(=O)N(C4CC4)C3)nc2n1` (single isomer, unassigned) [Example 116, (R or S)-1-cyclopropyl-4-((6-(2-(ethoxymethoxy)-6-methyl-4-(trifluoromethyl)phenyl)-3-((S or R)-1-hydroxyethyl)-2H-pyrazolo[3,4-b]pyrazin-2-yl)methyl)pyrrolidin-2-one], the half-maximal effective concentration (EC50) came out at 28 nM.

As for `Cc1cc(C(F)(F)F)cc(O)c1-c1cnc2cn([C@@H]3C[C@H]3C)nc2n1` [Example 50, 3-methyl-2-[2-[(1R,2R)-2-methylcyclopropyl]pyrazolo[3,4-b]pyrazin-6-yl]-5-(trifluoromethyl)phenol], the EC50 was 103 nM.

For the molecule `Cc1cc(C(F)(F)F)cc(O)c1-c1cnc2cn([C@@H]3COC[C@H]3O)nc2n1` [Example 33, (3S,4R)-4-[6-[2-hydroxy-6-methyl-4-(trifluoromethyl)phenyl]pyrazolo[3,4-b]pyrazin-2-yl]tetrahydrofuran-3-ol], the EC50 was found to be 71 nM.

`Cc1cc(C(F)(F)F)cc(O)c1-c1cnc2cn(C34CCC(O)(C3)C4)nc2n1` [Example 26, 4-[6-[2-hydroxy-6-methyl-4-(trifluoromethyl)phenyl]pyrazolo[3,4-b]pyrazin-2-yl]bicyclo[2.1.1]hexan-1-ol]: the EC50 worked out at 51 nM.

Still in this experiment, the particulars now being: inhibition of ASC SPECK formation; PMA-treated human monocytic THP-1 cells, compound 1 h before 12.5 μg/ml gramicidin, 3-hour treatment.
In the case of `Cc1cc(C(F)(F)F)cc(O)c1-c1cnc2cn([C@H]3C[C@H]4C[C@@H]3CO4)nc2n1` (single isomer, unassigned) [Example 4, 2-(2-((1R,4S,5S or 1S,4R,5R)-2-oxabicyclo[2.2.1]heptan-5-yl)-2H-pyrazolo[3,4-b]pyrazin-6-yl)-3-methyl-5-(trifluoromethyl)phenol], the EC50 is 34 nM.

`Cc1cc(C(F)(F)F)cc(O)c1-c1cnc2cn(C34COCC3C4)nc2n1` (single isomer, unassigned) [Example 84, 2-(2-((1S,5S or 1R,5R)-3-oxabicyclo[3.1.0]hexan-1-yl)-2H-pyrazolo[3,4-b]pyrazin-6-yl)-3-methyl-5-(trifluoromethyl)phenol]: the EC50 came to 60 nM.

Turning to `Cc1cc(C(F)(F)F)cc(O)c1-c1cnc2cn(C34CC3COC4(C)C)nc2n1` (single isomer, unassigned) [Example 76, 2-(2-((1R,5R or 1S,5S)-2,2-dimethyl-3-oxabicyclo[3.1.0]hexan-1-yl)-2H-pyrazolo[3,4-b]pyrazin-6-yl)-3-methyl-5-(trifluoromethyl)phenol], the concentration for a half-maximal effect (EC50) is 99 nM.

For the molecule `CCc1nnc2n1CC(n1cc3ncc(-c4c(C)cc(C(F)(F)F)cc4O)nc3n1)CC2` (single isomer, unassigned) [Example 73, (S or R)-2-(2-(3-ethyl-5,6,7,8-tetrahydro-[1,2,4]triazolo[4,3-a]pyridin-6-yl)-2H-pyrazolo[3,4-b]pyrazin-6-yl)-3-methyl-5-(trifluoromethyl)phenol], the EC50 was determined as 142 nM.

Consider `Cc1cc(C(F)(F)F)cc(O)c1-c1cnc2cn([C@@H]3C[C@@H]4C[C@H]3CO4)nc2n1` (single isomer, unassigned) [Example 3, 2-(2-((1S,4R,5R or 1R,4S,5S)-2-oxabicyclo[2.2.1]heptan-5-yl)-2H-pyrazolo[3,4-b]pyrazin-6-yl)-3-methyl-5-(trifluoromethyl)phenol], for which the EC50 came to 35 nM.

`CCN1CC(Cn2cc3ncc(-c4c(C)cc(C(F)(F)F)cc4O)nc3n2)CC1=O` (single isomer, unassigned) [Example 66, (R or S)-1-ethyl-4-((6-(2-hydroxy-6-methyl-4-(trifluoromethyl)phenyl)-2H-pyrazolo[3,4-b]pyrazin-2-yl)methyl)pyrrolidin-2-one]: the 50% effective concentration (EC50) was 359 nM.

As to `Cc1cc(C(F)(F)F)cc(O)c1-c1cnc2cn(C3CCC(=O)N(C(C)C)C3)nc2n1` (single isomer, unassigned) [Example 61, (S or R)-5-(6-(2-hydroxy-6-methyl-4-(trifluoromethyl)phenyl)-2H-pyrazolo[3,4-b]pyrazin-2-yl)-1-isopropylpiperidin-2-one], the EC50 was 101 nM.

As to `Cc1cc(C(F)(F)F)cc(O)c1-c1cnc2cn([C@H]3CCOC[C@H]3F)nc2n1` (single isomer, unassigned) [Example 101, 2-(2-((3S,4S or 3R,4R)-3-fluorotetrahydro-2H-pyran-4-yl)-2H-pyrazolo[3,4-b]pyrazin-6-yl)-3-methyl-5-(trifluoromethyl)phenol], the half-maximal effective concentration (EC50) amounted to 117 nM.

Regarding `Cc1nc2cn(C3CCC(=O)N(C)C3)nc2nc1-c1ccc(C(F)(F)F)cc1O` (single isomer, unassigned) [Example 111, (R or S)-5-(6-(2-hydroxy-4-(trifluoromethyl)phenyl)-5-methyl-2H-pyrazolo[3,4-b]pyrazin-2-yl)-1-methylpiperidin-2-one], the EC50 stood at 175 nM.

In the case of `Cc1cc(C(F)(F)F)cc(O)c1-c1cnc2cn([C@H]3CCOC[C@@H]3F)nc2n1` (single isomer, unassigned) [Example 104, 2-(2-((3S,4R or 3R,4S)-3-fluorotetrahydro-2H-pyran-4-yl)-2H-pyrazolo[3,4-b]pyrazin-6-yl)-3-methyl-5-(trifluoromethyl)phenol], the EC50 is 291 nM.

For `Cc1cc(C(F)(F)F)cc(O)c1-c1cnc2c(C(C)O)n(C3CCC(=O)N(C(C)C)C3)nc2n1` (single isomer, unassigned) [Example 119, (R or S)-5-(6-(2-hydroxy-6-methyl-4-(trifluoromethyl)phenyl)-3-((R or S)-1-hydroxyethyl)-2H-pyrazolo[3,4-b]pyrazin-2-yl)-1-isopropylpiperidin-2-one], the EC50 is 291 nM.

(Values after patent US20250195511A1, “INDAZOLE DERIVATIVES USEFUL AS INHIBITORS OF NOD-LIKE RECEPTOR PROTEIN 3” (Merck Sharp & Dohme LLC, priority 2023, published 2025).)
